We go through one compound from PMC11087268, “A folate inhibitor exploits metabolic differences in Pseudomonas aeruginosa for narrow-spectrum targeting” (Nature Microbiology, 2024).

Values after ≈ are worked out from the molar mass of the structure shown. Values joined by “and” are separate entries in the source; they are usually repeats but may differ in a detail not shown here. Equal entries are not always repeated.

The test system of test [1] is P. aeruginosa PA14 folate metabolism (dUMP, AICAR, GAR). In words: Metabolomics (LC–MS) of treated PA14. To be noted: PA14, 15 min. In kind it is cell-based, Pseudomonas aeruginosa. The method, then: Metabolites were extracted by vacuum filtering 15 ml of treated cells using 0.45 μm HNWP Millipore nylon membranes and placing the filters into an ice-cold quenching solution of 40:40:20 methanol:acetonitrile:H2O. Extracts were kept on dry ice for 1 h and centrifuged at 16,000 g for 1 h at 4 °C. The supernatant was kept at -80 °C until mass spectrometry analysis. Liquid chromatography-mass spectrometry (LC-MS) analysis of metabolites was performed on an Orbitrap Exploris 240 mass spectrometer coupled with hydrophilic interaction liquid chromatography (HILIC)[68]. […] Waters 196006724), with a gradient of solvent A (95 vol. % H2O, 5 vol. % acetonitrile, with 20 mM ammonium acetate and 20 mM ammonium hydroxide, pH 9.4) and solvent B (acetonitrile). Flow rate was 0.15 ml min^-1 and column temperature was set at 25 °C. […] Raw mass spectrometry data were converted to mzXML format by MSConvert (ProteoWizard). Pick-peaking was done on […].0.8.0, Elucidata).

Test [2] concerns E. coli MG1655. In words: Growth competition assay, c.f.u. of E. coli MG1655. In kind it is cell-based, Escherichia coli. To be noted: for E.coli MG1655 CFU/mL: Panel C. The procedure:
(§1) Cultures of each species were grown separately as well as being mixed 1:1. […] The number of colonies on Pseudomonas Selection Agar plates is reported as the c.f.u. ml^−1 of P. aeruginosa. To calculate c.f.u.s ml^−1 of E. coli MG1655, c.f.u.s ml^−1 were determined from LB agar plates and the c.f.u.s ml^−1 of P. aeruginosa were subtracted from these values.

Test [3] has as its system Pseudomonas aeruginosa PA14. The experiment in a line: MIC against P. aeruginosa PA14 in LB broth. It counts as cell-based. The method, then: (§2) Overnight cultures were diluted 1:150 in LB broth and added to a 96-well plate. Antibiotics were serially diluted 1:2 and added to columns of the 96-well plate and grown at 37 °C with continuous shaking. Cell growth was measured using optical density at 600 nm (OD600). MIC assays were performed in either BioTek Synergy HT or Tecan InfiniteM200 Pro microplate readers.

Test [4] concerns Enterobacter cloacae ATCC BAA-1143. In words: MIC against E. cloacae in LB broth. In kind it is cell-based. To be noted: ATCCBAA1143, 16 h. The procedure: as §2
The subject of test [5] is K. pneumoniae. In words: Growth with or without TMI supplementation and fluorofolin, K. pneumoniae. The settings on record: fluorofolin 2X MIC. In kind it is cell-based, Klebsiella pneumoniae. The procedure: Where listed, growth media were prepared according manufacturer recommendations: LB broth and LB broth supplemented with 0.3 mM thymine (BD Biosciences 244610, Alfa Aesar A15879), 0.3 mM methionine (Sigma-Aldrich M9625), 0.3 mM inosine (EMD Millipore 4060), cation-adjusted Mueller–Hinton II broth (CAMHB) (BD 212322) or 0.3 mM thymidine (Sigma-Aldrich T1895), Gutnick minimal media (1.0 g l^−1 K2SO4, 13.5 g l^−1 K2HPO4, 4.7 g l^−1 KH2PO4, 0.1 g l^−1 MgSO4·7H2O, 10 mM NH4Cl as a nitrogen source and 0.4% w/v glucose as a carbon source)[65].
Extended Data Fig. 3 TMI supplementation can also rescue other species from fluorofolin DHFR inhibition. […] (f) P. aeruginosa PA14 or E. coli lptd4213 treated with fluorofolin 50 μg/mL in the presence or absence of 0.3 mM thymidine. (g) E. coli lptd4213 treated with fluorofolin 50 μg/mL and SMX (78.1 μg/mL) in the presence or absence of 0.3 mM thymidine or 0.3 mM TMI supplementation, Curves represent average optical at 600 nm (OD600) of 2 biological replicates. Means are shown. Source data

Test [6] has as its system P. aeruginosa PA14. The experiment in a line: In vivo PA14 murine thigh infection. The settings on record: neutropenic CD-1 mice, 24 h post infection; fluorofolin 25 mg kg^−1 subcutaneous and/or SMX 100 mg kg^−1 intraperitoneal at 1 and 12 h; one value per mouse. An excerpt: For P. aeruginosa thigh infection model and maximum tolerated dose (MTD) studies, care and handling of female 5–6-week-old CD-1 conformed to Institutional Animal Care and Use Committee (IACUC) policies as carried out at the University of North Texas Health Science Center (Fort Worth, Texas) under UNTHSC IACUC-approved protocol nos. IACUC-2021-0003 and IACUC-2020-0039. Rodents were fed either base chow (Envigo) or base diet supplemented with 1.8 g kg^−1 thymidine (Sigma T9250) starting at 2 days before infection. All procedures were conducted in accordance with the UNTHSC IACUC-approved protocol. Animals were housed in rooms undergoing 10–15 air changes per hour. Air provided to the animal rooms was controlled for temperature and humidity and is fully monitored 24 h a day. Air pressure was balanced according to room use. Lighting was controlled in individual rooms by automatic timers with a standard 12 h on, 12 h off cycle.
Female 5–6-week-old CD-1 mice were rendered neutropenic by intraperitoneal cyclophosphamide treatment (Cytoxan) before this study. On day 0, mice were infected intramuscularly with 5.33 log c.f.u. per thigh PA14. Mice were treated subcutaneously with fluorofolin at 1 and 12 h post infection. For co-treatment, mice were treated with SMX intraperitoneally at 1 and 12 h post infection. […] In vivo efficacy was evaluated by the UNTHSC.

Test [7] concerns HLF (human lung fibroblast). The experiment in a line: Mammalian cell cytotoxicity, HLF. It counts as cell-based. To be noted: 72 h, CyQUANT, read-out: IC50 Fluorofolin. The method, then:
HK-2 (500 cells per well) (ATCC CRL-2190), HLF (500 cells per well) (Cell Applications 506K-05a), WI-38 (500 cells per well) (ATCC CCL-75) or PBMC (5,000 cells per well) (TPCS PB010C) cells were seeded in white opaque 384-well plates. After 24 h, DMSO or compounds were added in 3-fold dilutions and cells incubated for 72 h. For PBMC, CellTiter-Glo reagent was added in equal volume and incubated for 30 min, after which luminescence was read. For other cell types, CyQUANT detection reagent was added in equal volume and cells incubated for 1 h, after which fluorescence was read with standard green filter set […]. Cell toxicity was evaluated by Pharmaron.

Test [8] relates to P. aeruginosa PA14 nfxB mutants. The experiment in a line: MIC against fluorofolin-resistant PA14 nfxB mutants in liquid culture. In kind it is cell-based. To be noted: Pseudomonas aeruginosa. The procedure:
as §2
Resistant mutants were maintained as a frozen stock.

Test [9] concerns P. aeruginosa PA14. The experiment in a line: Growth competition assay, c.f.u. of P. aeruginosa PA14. In kind it is cell-based, Pseudomonas aeruginosa. The procedure: as §1
[10] abbreviates: 2× MIC (fluorofolin 6.3, TMP 250 μg ml^−1), one value per replicate.
Where [11] appears, read: PA14 : E. coli MG1655 1:1, 50 μg ml^−1 fluorofolin, selective plating.

For orientation: MIC means the lowest concentration that inhibits growth of the organism. Broadly, the IC50 is the concentration that inhibits the measured activity by half. For the compound `Nc1nc(N)c2c(ccc3c2ccn3Cc2ccnc(F)c2)n1` [fluorofolin], in test [1] (2× MIC), the “change of AICAR and dUMP” value is listed as “significant upregulation”. The “Normalized Ion Counts AICAR” value in test [1] (setting [10]) was 667209 and 798823 and 294672. Also, the “Normalized Ion Counts GAR” value in test [1] (setting [10]) is 62925.5 and 135659 and 3851.78. Moreover, in test [1] (setting [10]), the “Normalized Ion Counts dUMP” value was 5000000 and 3000000 and 2000000. Also, the figures for the “growth in co-culture with TMI supplementation” value in test [2] (setting [11]) and in [9] (setting [11]) were “but not E. coli” and “selectively inhibited the growth of P. aeruginosa”, respectively. Also, the “E.coli MG1655 CFU/mL” value in [2] (Fluorofolin) is 10 CFU/mL; in [2] (Fluorofolin + TMI), 1050000 CFU/mL and 1500000 CFU/mL and 1350000 CFU/mL. The MIC in test [3] (Pseudomonas aeruginosa, PA14) is 3.1 µg/mL; in test [3] (Pseudomonas aeruginosa, PA14, 16 h) it was 3.12 µg/mL; in test [3] (Wildtype PA14, control for each drug stock) it was 3.1 µg/mL; in test [4], 12.5 µg/mL; in test [8] it was more than 100 µg/mL. In addition, in test [5], the “rescue of growth inhibition by TMI supplementation” value was “could also be rescued from fluorofolin growth inhibition by TMI supplementation”. For the same compound, in [6], the “PA14 load in thigh” value was 9.3 log 10(CFU/ mouse) and 9.24 log 10(CFU/ mouse) and 9.05 log 10(CFU/ mouse) and 9.1 log 10(CFU/ mouse). The IC50 in [7] is 17.2 µg/mL (≈ 55.9 µM). For the same compound, in test [9] (Panel C, Fluorofolin), the “P. Aeruginosa PA14 CFU/mL” value was 39 CFU/mL and 46 CFU/mL and 40 CFU/mL.
